The text below walks through data of PubChem BioAssay (NCI).

Among the test systems are CCRF-CEM leukemia; MALME-3M melanoma; HCT-116 colon; KM12 colon; OVCAR-8 ovarian; RXF 393 renal; M14 melanoma; UACC-257 melanoma; COLO 205 colon; SNB-19 CNS.
Assay in all cases: NCI tumour cell line growth inhibition, 48 h

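1) Cells in 96-well plates. 2) Compound, 48 h, 5 concentrations. 3) Linear interpolation between surrounding doses. 4) Unreached endpoint = highest concentration. GI50 = concentration required for 50% inhibition of growth. The concentration for full growth arrest is given as TGI.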

In the case of `NC(=O)N/N=C1/CCCC/C1=C\c1ccccc1`, the TGI in the assay on CCRF-CEM leukemia, in the assay with MALME-3M melanoma, with HCT-116 colon, in the assay with KM12 colon, in the assay on OVCAR-8 ovarian and with RXF 393 renal was > 100 µM in each case. The TGI in the assay with M14 melanoma, in the assay with UACC-257 melanoma and in the assay with COLO 205 colon was > 100 µM in each case.
On to `CCCCCCCCCCCCOC(=S)NC`, for which the TGI is > 100 µM in the assay on CCRF-CEM leukemia; 39.6 µM with MALME-3M melanoma; 30.8 µM in the assay on HCT-116 colon; 27.8 µM in the assay on KM12 colon; 32.9 µM in the assay on OVCAR-8 ovarian; 32.5 µM in the assay on RXF 393 renal. Also, the TGI is > 100 µM in the assay with SNB-19 CNS, 37.1 µM in the assay on M14 melanoma and 42.2 µM in the assay on UACC-257 melanoma.
As for `Cc1ccc2oc(=O)cc(C3c4ccc([nH]4)C(c4cc(=O)oc5ccc(C)cc45)c4ccc([nH]4)C(c4cc(=O)oc5ccc(C)cc45)c4ccc([nH]4)C(c4cc(=O)oc5ccc(C)cc45)c4ccc3[nH]4)c2c1` (centres undefined), the GI50 with CCRF-CEM leukemia was 0.0359 µM; in the assay with MALME-3M melanoma, 0.131 µM; in the assay on HCT-116 colon, 0.0295 µM; in the assay on OVCAR-8 ovarian, 0.0338 µM; in the assay with RXF 393 renal it was 0.0254 µM; in the assay with SNB-19 CNS, 0.0394 µM. For the same compound, the GI50 in the assay on M14 melanoma is 0.0253 µM; in the assay on UACC-257 melanoma it was 0.183 µM; in the assay with COLO 205 colon it was 0.165 µM. Besides, the TGI in the assay with CCRF-CEM leukemia is > 100 µM; in the assay on MALME-3M melanoma, 2.85 µM; with HCT-116 colon, 0.28 µM; in the assay on OVCAR-8 ovarian, 1.52 µM; with RXF 393 renal, 0.0774 µM; with SNB-19 CNS, 3.45 µM. For the same compound, the TGI in the assay on M14 melanoma turned out to be 0.0766 µM; in the assay on UACC-257 melanoma it was 2.46 µM; with COLO 205 colon, 0.353 µM.
`COc1ccc(NCc2c(O)ccc3ccccc23)cc1`: the TGI with MALME-3M melanoma was 38.8 µM; with HCT-116 colon, > 100 µM; in the assay on KM12 colon it was > 100 µM; in the assay on OVCAR-8 ovarian, 29.2 µM; in the assay with RXF 393 renal it was 35 µM; in the assay with SNB-19 CNS, > 100 µM. Further, the TGI in the assay on M14 melanoma is 47.6 µM; in the assay with UACC-257 melanoma, 44.5 µM; in the assay with COLO 205 colon, 94.3 µM.
Regarding `C=CC1=C(C)C(Cc2[nH]c(/C=c3\[nH]/c(=C/C4=NC(=O)C(C)/C4=C\C)c(C)c3CCC(=O)O)c(CCC(=O)OC)c2C)NC1=O` (centres undefined), the GI50 was 31.2 µM in the assay on CCRF-CEM leukemia; 31.8 µM with MALME-3M melanoma; 19.8 µM in the assay with HCT-116 colon; 21 µM in the assay with KM12 colon; 34.9 µM in the assay with OVCAR-8 ovarian; 21.4 µM in the assay on RXF 393 renal. For the same compound, the GI50 in the assay with M14 melanoma was 28.3 µM; with UACC-257 melanoma it was 7.9 µM; in the assay on COLO 205 colon it was 20.2 µM. The TGI in the assay with CCRF-CEM leukemia was > 100 µM; in the assay on MALME-3M melanoma, 69.8 µM; in the assay on HCT-116 colon, 36.9 µM; in the assay on KM12 colon, 40.1 µM; in the assay on OVCAR-8 ovarian, > 100 µM; in the assay with RXF 393 renal, 44 µM. Further, the TGI in the assay on M14 melanoma was 89.5 µM; in the assay on UACC-257 melanoma, 41.1 µM; with COLO 205 colon it was 36.3 µM.
In the case of `C#CCOc1cccc(Nc2ncnc3c2ncn3C2CCN(C(=O)CCl)C2)c1` (centres undefined), the GI50 is 4.18 µM in the assay with CCRF-CEM leukemia; 12.3 µM in the assay with MALME-3M melanoma; 22.7 µM in the assay with HCT-116 colon; 23.4 µM in the assay on KM12 colon; 30.7 µM in the assay on OVCAR-8 ovarian; 17.1 µM with RXF 393 renal. Besides, the GI50 is 35.1 µM in the assay with SNB-19 CNS, 16.9 µM with M14 melanoma and 26.3 µM with UACC-257 melanoma. In addition, the TGI in the assay on CCRF-CEM leukemia is 26.3 µM; in the assay on MALME-3M melanoma it was 28.1 µM; in the assay with HCT-116 colon it was 59.8 µM; in the assay with KM12 colon, 58.2 µM; in the assay with OVCAR-8 ovarian it was > 100 µM; in the assay on RXF 393 renal, 36.6 µM. The values for the TGI in the assay on SNB-19 CNS, with M14 melanoma and in the assay on UACC-257 melanoma were > 100 µM, 48.5 µM and 79.2 µM, respectively.
In the case of `NC(=O)C12CCC1C1CCCCC12N1CCOCC1` (centres undefined), the TGI in the assay on CCRF-CEM leukemia, in the assay with MALME-3M melanoma, in the assay on HCT-116 colon, in the assay on KM12 colon, with OVCAR-8 ovarian and with RXF 393 renal was > 100 µM each time. Further, the TGI in the assay with SNB-19 CNS and in the assay on M14 melanoma was > 100 µM in each case.
Turning to `C=C(C)C1CCC2(CO)C(O)CC3(C)C(CCC4C5(C)CCC(O)C(C)(C)C5CCC43C)C12` (centres undefined), the TGI in the assay with CCRF-CEM leukemia is > 100 µM; with MALME-3M melanoma, 32 µM; with HCT-116 colon, 73.7 µM; with KM12 colon it was > 100 µM; with OVCAR-8 ovarian, 20.7 µM; in the assay on RXF 393 renal it was 9.65 µM. The TGI in the assay with SNB-19 CNS is 84.1 µM; in the assay with M14 melanoma, > 100 µM; in the assay with UACC-257 melanoma, 24.9 µM.
For the compound `OCCCCC#Cc1ccccc1C#Cc1cccs1`, the GI50 was 2.29 µM in the assay on CCRF-CEM leukemia; 22.8 µM in the assay with MALME-3M melanoma; 15.2 µM in the assay on HCT-116 colon; 16.6 µM with KM12 colon; 16.4 µM with OVCAR-8 ovarian; 15.8 µM in the assay with RXF 393 renal. In addition, the GI50 in the assay with SNB-19 CNS was 16.1 µM; in the assay with UACC-257 melanoma, 18.8 µM; with COLO 205 colon, 16.4 µM. Moreover, the TGI in the assay on CCRF-CEM leukemia was 11.5 µM; with MALME-3M melanoma, 55.4 µM; with HCT-116 colon, 31.4 µM; in the assay on KM12 colon, 48 µM; in the assay with OVCAR-8 ovarian, 31.2 µM; in the assay on RXF 393 renal, 30.3 µM. The TGI came out at 31.1 µM in the assay with SNB-19 CNS, 33 µM in the assay with UACC-257 melanoma and 31.5 µM with COLO 205 colon.
Regarding `O=C1C(Cl)=C(Nc2ccc3c(c2NC2=C(Cl)C(=O)c4ccccc4C2=O)C(=O)c2ccccc2C3=O)C(=O)c2ccccc21`, the GI50 with CCRF-CEM leukemia was 2.48 µM; in the assay on MALME-3M melanoma it was 0.505 µM; in the assay on KM12 colon, 2.98 µM; in the assay with OVCAR-8 ovarian, 2.72 µM; in the assay with RXF 393 renal, 2.97 µM; in the assay with SNB-19 CNS, 2.74 µM. The values for the GI50 with M14 melanoma, with UACC-257 melanoma and with COLO 205 colon were 1.02 µM, 1.88 µM and 1.69 µM, respectively. Also, the TGI with CCRF-CEM leukemia amounted to 24.7 µM; with MALME-3M melanoma, 1.72 µM; with KM12 colon, 15 µM; in the assay with OVCAR-8 ovarian it was 9.6 µM; in the assay with RXF 393 renal, 9.79 µM; in the assay with SNB-19 CNS, 10.3 µM. In addition, the TGI in the assay with M14 melanoma was determined as 2.29 µM; in the assay on UACC-257 melanoma, 3.95 µM; in the assay with COLO 205 colon it was 3.72 µM.
